Test results published in patent US10681908B2, “Molecules having pesticidal utility, and intermediates, compositions, and processes, related thereto” (Dow AgroSciences LLC, priority 2016, dated 2020).
Where two headings read alike, the source gives them in different places.

Key:
[1] = system: Beet Armyworm (Spodoptera exigua, LAPHEG); experiment: Bioassay on Beet Armyworm (BAW), 128-well diet tray assay; assay type: in vivo; details: for mortality at 50 µg/cm2: 168 h, 50 μg/cm^2 on artificial diet, second instar larvae, five to seven days, 25° C., read-out: BAW % Control (or Mortality) rating
Protocol: (§1) Example A: Bioassays on Beet Armyworm (Spodoptera Exigua, LAPHEG) (“BAW”), Corn Earworm (Helicoverpa zea, HELIZE) (“CEW”), and Cabbage Looper (Trichoplusia ni, TRIPNI) (“CL”)
(§2) Certain molecules disclosed in this document were tested against BAW, CEW, and CL using procedures described in the following examples. In the reporting of the results, the “BAW, CEW, & CL Rating Table” was used (See Table Section).
Bioassays on BAW were conducted using a 128-well diet tray assay. One to five second instar BAW larvae were placed in each well (3 mL) of the diet tray that had been previously filled with 1 mL of artificial diet to which 50 μg/cm^2 of the test molecule (dissolved in 50 μL of 90:10 acetone-water mixture) had been applied (to each of eight wells) and then allowed to dry. Trays were covered with a clear self-adhesive cover and held at 25° C., 14:10 light-dark for five to seven days. Percent mortality was recorded for the larvae in each well; activity in the eight wells was then averaged. The results are indicated in the table entitled “Table ABC: Biological Results” (See Table Section).
(§3) Bioassays on BAW and CL were conducted according to the procedures outlined in Example A: Bioassays on Beet Armyworm (“BAW”) and Cabbage Looper (“CL”) using the indicated concentrations.

[2] = system: Cabbage Looper (Trichoplusia ni, TRIPNI); experiment: Bioassay on Cabbage Looper (CL), 128-well diet tray assay; assay type: in vivo; details: for mortality at 50 µg/cm2: 168 h, 50 μg/cm^2 on artificial diet, second instar larvae, five to seven days, 25° C., read-out: CL % Control (or Mortality) rating
Protocol: as §1, §2
Bioassays on CL were conducted using a 128-well diet tray assay. One to five second instar CL larvae were placed in each well (3 mL) of the diet tray that had been previously filled with 1 mL of artificial diet to which 50 μg/cm^2 of the test molecule (dissolved in 50 μL of 90:10 acetone-water mixture) had been applied (to each of eight wells) and then allowed to dry. Trays were covered with a clear self-adhesive cover and held at 25° C., 14:10 light-dark for five to seven days. Percent mortality was recorded for the larvae in each well; activity in the eight wells was then averaged. The results are indicated in the table entitled “Table ABC: Biological Results” (See Table Section).
as §3

Compound | mortality at 50 µg/cm2 [1] [%] | mortality at 50 µg/cm2 [2] [%] | also measured
C[C@H](CS(=O)(=O)CC(F)(F)F)NC(=O)c1ccc(/C(F)=C/C(c2ccc(Cl)c(Cl)c2)C(F)(F)F)cc1Br (stereo partly drawn) [F67] | 50 to 100 | 50 to 100 | –
C[C@H](CS(=O)(=O)CC(F)(F)F)NC(=O)c1ccc(/C(F)=C/C(c2ccc(Cl)c(F)c2)C(F)(F)F)cc1C(F)(F)F (stereo partly drawn) [PF4, 4-((Z)-3-(4-Chloro-3-fluorophenyl)-1,4,4,4-tetrafluorobut-1-en-1-yl)-N—((R)-1-((2,2,2-trifluoroethyl)sulfonyl)propan-2-yl)-2-(trifluoromethyl)benzamide] | 50 to 100 | 50 to 100 | –
CCSC[C@@H](C)NC(=O)c1ccc(/C(F)=C/C(c2cc(Cl)c(F)c(Cl)c2)C(F)(F)F)cc1C(F)(F)F (stereo partly drawn) [F41, 4-((Z)-3-(3,5-Dichloro-4-fluorophenyl)-1,4,4,4-tetrafluorobut-1-en-1-yl)-N—((R)-1-(ethylthio)propan-2-yl)-2-(trifluoromethyl)benzamide] | 50 to 100 | 50 to 100 | –
C[C@H](CSCC(F)(F)F)NC(=O)c1ccc(/C(F)=C/C(c2cc(Cl)c(Br)c(Cl)c2)C(F)(F)F)cc1C(F)(F)F (stereo partly drawn) [F24, 4-((Z)-3-(4-Bromo-3,5-dichlorophenyl)-1,4,4,4-tetrafluorobut-1-en-1-yl)-N—((R)-1-((2,2,2-trifluoroethyl)thio)propan-2-yl)-2-(trifluoromethyl)benzamide] | 50 to 100 | 50 to 100 | –
Cc1cc(/C(F)=C/C(c2cc(Cl)c(Cl)c(Cl)c2)C(C)(F)F)ccc1C(=O)N[C@H](C)CS(=O)(=O)CC(F)(F)F (stereo partly drawn) [F14, 2-Methyl-4-((Z)-1,4,4-trifluoro-3-(3,4,5-trichlorophenyl)pent-1-en-1-yl)-N—((R)-1-((2,2,2-trifluoroethyl)sulfonyl)propan-2-yl)benzamide] | 50 to 100 | 50 to 100 | mortality at 0.05 µg/cm2 ([1]; 0.05 μg/cm^2, read-out: BAW Percent control (or mortality)): 69%; mortality at 0.5 µg/cm2 ([1]; 0.5 μg/cm^2, read-out: BAW Percent control (or mortality)): 100%; mortality at 5 µg/cm2 ([1]; 5 μg/cm^2, read-out: BAW Percent control (or mortality)): 100%; mortality at 0.05 µg/cm2 ([2]; 0.05 μg/cm^2, read-out: CL Percent control (or mortality)): 100%; mortality at 0.5 µg/cm2 ([2]; 0.5 μg/cm^2, read-out: CL Percent control (or mortality)): 100%; mortality at 5 µg/cm2 ([2]; 5 μg/cm^2, read-out: CL Percent control (or mortality)): 100%
C[C@H](CSCC(F)(F)F)NC(=O)c1ccc(/C(F)=C/C(c2cc(Cl)c(Cl)c(Cl)c2)C(C)(F)F)cc1 (stereo partly drawn) [FC2, 4-((Z)-1,4,4-Trifluoro-3-(3,4,5-trichlorophenyl)pent-1-en-1-yl)-N—((R)-1-((2,2,2-trifluoroethyl)thio)propan-2-yl)benzamide] | – | – | mortality at 0.05 µg/cm2 ([1]; 0.05 μg/cm^2, Table CD2 comparative data, read-out: Percent control (or mortality) BAW): 0%; mortality at 0.5 µg/cm2 ([1]; 0.5 μg/cm^2, Table CD2 comparative data, read-out: Percent control (or mortality) BAW): 20%; mortality at 5 µg/cm2 ([1]; 5 μg/cm^2, Table CD2 comparative data, read-out: Percent control (or mortality) BAW): 100%; mortality at 0.05 µg/cm2 ([2]; 0.05 μg/cm^2, Table CD2 comparative data, read-out: Percent control (or mortality) CL): 0%; mortality at 0.5 µg/cm2 ([2]; 0.5 μg/cm^2, Table CD2 comparative data, read-out: Percent control (or mortality) CL): 0%; mortality at 5 µg/cm2 ([2]; 5 μg/cm^2, Table CD2 comparative data, read-out: Percent control (or mortality) CL): 100%
C=Cc1c(Cl)cc(C(/C=C(\F)c2ccc(C(=O)N[C@H](C)CSCC)c(C(F)(F)F)c2)C(F)(F)F)cc1Cl (stereo partly drawn) [F47, 4-((Z)-3-(3,5-Dichloro-4-vinylphenyl)-1,4,4,4-tetrafluorobut-1-en-1-yl)-N—((R)-1-(ethylthio)propan-2-yl)-2-(trifluoromethyl)benzamide] | 50 to 100 | 50 to 100 | –
CC(CNC(=O)c1ccc(/C(F)=C/C(c2cc(Cl)c(Cl)c(Cl)c2)C(F)(F)F)cc1C(F)(F)F)[S+](C)[O-] (stereo not drawn) [F90, (Z)—N-(2-(Methylsulfinyl)propyl)-4-(1,4,4,4-tetrafluoro-3-(3,4,5-trichlorophenyl)but-1-en-1-yl)-2-(trifluoromethyl)benzamide] | 50 to 100 | 50 to 100 | –
CCSC[C@@H](C)NC(=O)c1ccc(/C(F)=C/C(c2cc(Br)cc(Br)c2)C(F)(F)F)cc1C(F)(F)F (stereo partly drawn) [F40, 4-((Z)-3-(3,5-Dibromophenyl)-1,4,4,4-tetrafluorobut-1-en-1-yl)-N—((R)-1-(ethylthio)propan-2-yl)-2-(trifluoromethyl)benzamide] | 50 to 100 | 50 to 100 | –
Cc1cc(/C(F)=C/C(c2cc(Cl)c(Cl)c(Cl)c2)C(F)(F)F)ccc1C(=O)N[C@H](C)C[S+]([O-])CC(F)(F)F (stereo partly drawn) [F5, 2-Methyl-4-((Z)-1,4,4,4-tetrafluoro-3-(3,4,5-trichlorophenyl)but-1-en-1-yl)-N-((2R)-1-((2,2,2-trifluoroethyl)sulfinyl)propan-2-yl)benzamide] | 50 to 100 | 50 to 100 | –
CCS(=O)(=O)C[C@@H](C)NC(=O)c1ccc(/C(F)=C/C(c2cc(Cl)c(Br)c(Cl)c2)C(F)(F)F)cc1C(F)(F)F (stereo partly drawn) [F63, 4-((Z)-3-(4-Bromo-3,5-chlorophenyl)-1,4,4,4-tetrafluorobut-1-en-1-yl)-N—((R)-1-(ethylsulfonyl)propan-2-yl)-2-(trifluoromethyl)benzamide] | 50 to 100 | 50 to 100 | –
C[C@H](CS(=O)(=O)CC(F)(F)F)NC(=O)c1ccc(/C(F)=C/[C@H](c2cc(Cl)c(Cl)c(Cl)c2)C(F)(F)F)cc1C(F)(F)F [F72, 4-((R,Z)-1,4,4,4-tetrafluoro-3-(3,4,5-trichlorophenyl)but-1-en-1-yl)-N—((R)-1-((2,2,2-trifluoroethyl)sulfonyl)propan-2-yl)-2-(trifluoromethyl)benzamide] | 50 to 100 | 50 to 100 | –
O=C(NCC[S+]([O-])CCF)c1ccc(/C(F)=C/C(c2cc(Cl)c(Cl)c(Cl)c2)C(F)(F)F)cc1C(F)(F)F (stereo not drawn) [F138, (Z)—N-(2-((2-Fluoroethyl)sulfinyl)ethyl)-4-(1,4,4,4-tetrafluoro-3-(3,4,5-trichlorophenyl)but-1-en-1-yl)-2-(trifluoromethyl)benzamide] | 50 to 100 | 50 to 100 | –
C[C@H](CS(=O)(=O)CC(C)(F)F)NC(=O)c1ccc(/C(F)=C/C(c2cc(Cl)c(Cl)c(Cl)c2)C(F)(F)F)cc1C(F)(F)F (stereo partly drawn) [F97, N—((R)-1-((2,2-difluoropropyl)sulfonyl)propan-2-yl)-4-((Z)-1,4,4,4-tetrafluoro-3-(3,4,5-trichlorophenyl)but-1-en-1-yl)-2-(trifluoromethyl)benzamide] | 50 to 100 | 50 to 100 | –
C[C@H](CSCCC(F)(F)F)NC(=O)c1ccc(/C(F)=C/C(c2cc(Cl)c(Cl)c(Cl)c2)C(F)(F)F)cc1C(F)(F)F (stereo partly drawn) [F137, 4-((Z)-1,4,4,4-Tetrafluoro-3-(3,4,5-trichlorophenyl)but-1-en-1-yl)-2-(trifluoromethyl)-N—((R)-1-((3,3,3-trifluoropropyl)thio)propan-2-yl)benzamide] | 50 to 100 | 50 to 100 | –
C[C@H](CS(=O)(=O)CC(F)(F)F)NC(=O)c1ccc(/C(F)=C/C(c2cc(Cl)c(Cl)c(Br)c2)C(F)(F)F)cc1C(F)(F)F (stereo partly drawn) [F80, 4-((Z)-3-(3-Bromo-4,5-dichlorophenyl)-1,4,4,4-tetrafluorobut-1-en-1-yl)-N—((R)-1-((2,2,2-trifluoroethyl)sulfonyl)propan-2-yl)-2-(trifluoromethyl)benzamide] | 50 to 100 | 50 to 100 | –
Cc1c(C(/C=C(\F)c2ccc(C(=O)N[C@H](C)CS(=O)(=O)CC(F)(F)F)c(C(F)(F)F)c2)C(F)(F)F)ccc(Cl)c1Cl (stereo partly drawn) [F132, 4-((Z)-3-(3,4-Dichloro-2-methylphenyl)-1,4,4,4-tetrafluorobut-1-en-1-yl)-N—((R)-1-((2,2,2-trifluoroethyl)sulfonyl)propan-2-yl)-2-(trifluoromethyl)benzamide] | 50 to 100 | 50 to 100 | –
CC(C)(CS(C)(=O)=O)NC(=O)c1ccc(/C(F)=C/C(c2cc(Cl)c(Cl)c(Cl)c2)C(F)(F)F)cc1C(F)(F)F (stereo not drawn) [F100, (Z)—N-(2-Methyl-1-(methylsulfonyl)propan-2-yl)-4-(1,4,4,4-tetrafluoro-3-(3,4,5-trichlorophenyl)but-1-en-1-yl)-2-(trifluoromethyl)benzamide] | 50 to 100 | 50 to 100 | –
C[C@H](CSCCC#N)NC(=O)c1ccc(/C(F)=C/C(c2cc(Cl)c(Cl)c(Cl)c2)C(F)(F)F)cc1C(F)(F)F (stereo partly drawn) [F128, N—((R)-1-((2-Cyanoethyl)thio)propan-2-yl)-4-((Z)-1,4,4,4-tetrafluoro-3-(3,4,5-trichlorophenyl)but-1-en-1-yl)-2-(trifluoromethyl)benzamide] | 50 to 100 | 50 to 100 | –
